Measured values published in article PMC11764585, “Hybridization Design and High-Throughput Screening of Peptides with Immunomodulatory and Antioxidant Activities” (International Journal of Molecular Sciences, 2025).

Legend:
IPEC-J2-Lucia ARE cells = assay: ARE luciferase reporter assay; format: cell-based; settings: peptide 100 μg/mL, 12 h, luminescence
Text: (§1) The ARE sequences and NF-κB element sequences are referenced in [52, 54]. Based on the sequence information, plasmids pCD-ARE-puro and pCDH-NF-κB-puro were constructed. These plasmids, along with pMD2.G and psPAX2, were transfected into HEK293T cells using a three-plasmid virus packaging system to produce viruses. The virus supernatants were then used to infect IPEC-J2 or RAW 264.7 cells, followed by positive clone screening with Puromycin. For the testing of stable cell lines, tBHQ was used for IPEC-J2-Lucia ARE cells and LPS was used for RAW-Lucia NF-κB cells.
(§2) Candidate peptides (100 μg/mL) were incubated with RAW-Lucia NF-κB or IPEC-J2-Lucia ARE cells (3 × 10⁵ cells/well) in 96-well plates for 12 h. LPS (100 ng/mL) was used as the positive control for the RAW-Lucia NF-κB cells and tBHQ (10 μM) was used as the positive control for the IPEC-J2-Lucia ARE cells. Subsequently, 15 μL of the culture supernatant was mixed with 50 μL of detection buffer (50 mM HEPES, pH 7.0; 50 mM NaCl; 0.05% CHAPS; 10 mM EDTA; and 1 μM coelenterazine). Luminescence was measured using a multimode plate reader, and relative luminescence units (RLUs) were calculated.

HepG2 cells = assay: H2O2-induced oxidative damage model in HepG2 cells; format: cell-based; settings: peptide 100 ng/mL pre-incubation 2 h, then H2O2 650 μM 6 h; for Protective effect against H2O2-induced oxidative damage (result in words): CCK-8 viability, vs model group
Description: HepG2 cells (2 × 10^5 cells/well) were seeded into 96-well plates and incubated overnight at 37 °C with 5% CO2. The supernatant was removed, and hybrid or parent peptides were added at a final concentration of 100 ng/mL for 2 h. H2O2 (Sigma-Aldrich, St. louis, MO, USA) was then added to a final concentration of 650 μM and the cells were further incubated for 6 h. Cell viability was assessed using the CCK-8 assay.

TNF-α = assay: ELISA of TNF-α in RAW 264.7 culture supernatant; format: cell-based, mouse; settings: RAW 264.7 cells, peptide 100 μg/mL, 24 h, vs CON group
Description: (§3) RAW 264.7 macrophages (2 × 10^6 cells/well) were seeded in 6-well plates and incubated for 12 h. Hybrid peptides and parent peptides were added to achieve a final concentration of 100 μg/mL, LPS (100 ng/mL) as a positive control. After 24 h of incubation, the culture supernatants were collected, and the levels of TNF-α, IL-6, and IL-1β were measured using ELISA kits according to the manufacturer’s instructions (Solarbio, Beijing, China).

IL-1β = assay: ELISA of IL-1β in RAW 264.7 culture supernatant; format: cell-based, mouse; settings: RAW 264.7 cells, peptide 100 μg/mL, 24 h, vs CON group
Description: as §3

IL-6 = assay: ELISA of IL-6 in RAW 264.7 culture supernatant; format: cell-based, mouse; settings: RAW 264.7 cells, peptide 100 μg/mL, 24 h, vs CON group
Description: as §3

RAW-Lucia NF-κB cells = assay: NF-κB luciferase reporter assay; format: cell-based, mouse; settings: peptide 100 μg/mL, 12 h, luminescence, p < 0.05 vs control group
Text: as §1, §2

Sequence	Stimulation of the ARE pathway (result in words) (IPEC-J2-Lucia ARE cells)	Protective effect against H2O2-induced oxidative damage (result in words) (HepG2 cells)	Expression of TNF-α (result in words) (TNF-α)	Expression of IL-1β (result in words) (IL-1β)	Expression of IL-6 (result in words) (IL-6)	Increase of HepG2 cell viability compared to the H2O2-treated group (HepG2 cells; CCK-8) [%]	Activation of the NF-κB signaling pathway (result in words) (RAW-Lucia NF-κB cells)
YGPSSYGYGRKDVY [YP, hybrid peptide of parent peptides Y and P]	stimulate the ARE pathway						
RKDVYYGPSSYGYG [PY, hybrid peptide of parent peptides P and Y]	stimulate the ARE pathway	significant differences compared to the model group					
QLNWDRKDVY [MP, hybrid peptide of parent peptides M and P]	stimulate the ARE pathway	significant differences compared to the model group	significantly upregulated	significantly upregulated	significantly upregulated		
YGPSSYGYGKEKKEVVE [YTa, hybrid peptide of parent peptides Y and Ta]		significant differences compared to the model group			significantly increased	12	significantly activated
RGPPPRKDVY [RP, hybrid peptide of parent peptides R and P]			significantly upregulated	significantly upregulated	significantly upregulated		significantly activated
YGPSSYGYGEVVEEA [YTb, hybrid peptide of parent peptides Y and Tb]				particularly upregulated	particularly upregulated		
RKDVYRGPPP [PR, hybrid peptide of parent peptides P and R]			significantly upregulated	significantly upregulated	significantly upregulated		significantly activated
KEKKEVVEYGPSSYGYG [TaY, hybrid peptide of parent peptides Ta and Y]	stimulate the ARE pathway	significant differences compared to the model group	significantly upregulated	significantly upregulated	significantly upregulated		
EVVEEAYGPSSYGYG [TbY, hybrid peptide of parent peptides Tb and Y]			significantly upregulated	significantly upregulated	significantly upregulated		significantly activated
